Patent publication US20100150948A1, “MATERIALS AND METHODS FOR IMPROVED IMMUNOGLYCOPROTEINS” (TRUBION PHARMACEUTICALS, INC., priority 2006, published 2010)

Legend:
[1] = test system: BJAB B cells; assay: ADCC activity, 51Cr release, PBMC effector cells; assay type: cell-based, human; conditions: for ADCC activity (% specific killing) of TRU-015 purified protein: 0, 2, 5, 10, 30 or 100 μg/mL castanospermine in culture media
Experimental: To determine the ADCC activity of purified TRU-016, labeled BJAB B cells were used as targets and human peripheral blood mononuclear cells (PBMC) as effector cells. BJAB B cells (10^7 cells) were labeled with 500 μCi/mL ^51Cr sodium chromate for 2 hours at 37° C. in IMDM/10% FBS. PBMCs were isolated from heparinized, human whole blood by fractionation over Lymphocyte Separation Media (LSM, ICN Biomedical) gradients. Reagent samples were added to RPMI media with 10% FBS and serial dilutions of each reagent were prepared. The ^51Cr labeled BJAB were added at 2×10^4 cells/well. The PBMCs were then added at 5×10^5 cells/well for a final ratio of 25:1 effectors (PBMC):targets (BJAB). Reactions were set up in quadruplicate wells of a 96 well plate. Reactions were allowed to proceed for 6 hours at 37° C. in 5% CO2 prior to harvesting and counting. CPM released was measured on a Packard TopCounNXT from 50 μl dried culture supernatant. Percent specific killing was calculated by subtracting (cpm [mean of quadruplicate samples] of sample—cpm spontaneous release)/(cpm maximal release-cpm spontaneous release) x100, and data were plotted as % specific killing versus TRU-016 concentration.

[2] = test system: CD37 and FcγRIIIa (CD16); assay: Simultaneous binding of TRU-016 to CD37 and FcγRIIIa (CD16) on Daudi cells; design: species or system human; conditions: CS 0-800 μM in culture; response up to 400 μM, at which point the binding appears to level off
Experimental: TRU-016 produced as described in Example 8 was tested in the following assay, which simultaneously evaluates the ability of the TRU-016 binding domain to bind to a CD37 expressing target cell and the ability of the Fc portion of the TRU-016 SMIP to bind a fusion protein of human CD16 and murine IgG Fc.
The target cell utilized is the Daudi (ATCC CRL-213) cell line. Daudi cells are a human B-lymphoblastoid cell line derived from a Burkitt's lymphoma and express high levels of CD37. The custom soluble CD16:MuIgGFc fusion protein is human CD16 (low affinity polymorphism) linked to a murine IgG Fc.
The appropriate number of Daudi cells (350,000/well times the number of wells) is aliquoted and centrifuged at 250×g for 5 minutes at 15° C. The supernatant is removed. One percent cold paraformaldehyde is prepared by diluting the 4% stock from USB (USB US19943) 1:4 with FACS Buffer. FACS Buffer is prepared by adding 2% FBS (Gibco) to Dulbecco's PBS (Invitrogen) (v/v) and sterile filtering with a 0.22 μm filter. FACS Buffer is stored and used at 4° C. […]
Each sample's bound fluorescence is measured on a BD FACSCalibur flow cytometry system and analyzed with Cell Quest Pro software (Becton Dickinson, ver 5.2). The GeoMean fluorescence intensity for each sample is plotted relative to the TRU-016 concentration. […]

O[C@H]1[C@H](O)[C@@H](O)CN2CC[C@H](O)[C@H]12 [castanospermine]
ADCC activity (% specific killing) of TRU-016 purified protein ([1]; 0, 10, 25, 50, 100 or 200 μM castanospermine in culture media): dose-dependent increase
ADCC (% specific killing) of TRU-016 purified protein ([1]; 200 μM DMJ, 10 μM kifenunsine or 200 μM castanospermine in culture media): improved ADCC
ADCC activity (% specific killing) of TRU-015 purified protein ([1]; PBMC from high affinity (V/V158) CD16 donors): dose-dependent increase
ADCC activity (% specific killing) of TRU-015 purified protein ([1]; PBMC from low affinity (F/F158) CD16 donors): dose-dependent increase
simultaneous binding of TRU-016 to CD37 and CD16 (GeoMean fluorescence, D-parameter) [2]: dose-dependent binding response
